Measurements reported in BindingDB's records for PubMed 38118394 (Second Military Medical University (Naval Medical …).
Peptide text beside a SMILES is read from it.

Target: Glypican-3 (Homo sapiens, UniProt P51654)
Experiment: Binding affinity to GPC3 (unknown origin) assessed as dissociation constant by fluorescence polarization assay

Glypican-3, sequence (P51654 25-358 limits assumed): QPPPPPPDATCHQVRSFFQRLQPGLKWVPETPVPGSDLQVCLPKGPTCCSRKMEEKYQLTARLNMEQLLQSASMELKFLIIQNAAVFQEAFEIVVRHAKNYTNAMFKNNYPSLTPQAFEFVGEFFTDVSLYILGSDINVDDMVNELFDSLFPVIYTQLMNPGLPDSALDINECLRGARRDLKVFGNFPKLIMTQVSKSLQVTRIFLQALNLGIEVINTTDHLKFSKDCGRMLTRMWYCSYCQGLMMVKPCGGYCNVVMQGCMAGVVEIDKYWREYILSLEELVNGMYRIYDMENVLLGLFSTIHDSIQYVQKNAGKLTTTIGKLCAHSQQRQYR
Glypican-3, sequence (P51654 359-554 limits assumed): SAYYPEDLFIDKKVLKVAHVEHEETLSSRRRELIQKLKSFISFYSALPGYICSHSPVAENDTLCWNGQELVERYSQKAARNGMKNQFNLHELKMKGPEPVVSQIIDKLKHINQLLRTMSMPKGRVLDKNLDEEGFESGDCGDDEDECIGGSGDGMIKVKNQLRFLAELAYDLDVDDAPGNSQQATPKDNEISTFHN

Compound | Kd
C=Cc1c(C)c2cc3nc(c(CC(=O)O)c4[nH]c(cc5nc(cc1[nH]2)C(C)=C5CC)c(C)c4C(=O)NCCCC(=O)N[C@@H](CC(=O)O)C(=O)N[C@@H](Cc1ccc(O)cc1)C(=O)N[C@@H](CCC(=O)O)C(=O)N[C@@H](CCSC)C(=O)N[C@@H](Cc1cnc[nH]1)C(=O)N[C@@H](CC(C)C)C(=O)N[C@@H](Cc1c[nH]c2ccccc12)C(=O)N[C@@H](Cc1c[nH]c2ccccc12)C(=O)NCC(=O)N[C@H](C(=O)N[C@@H](CCC(=O)O)C(=O)N[C@@H](CC(C)C)C(=O)O)[C@@H](C)O)[C@@H](CCC(=O)O)[C@@H]3C (HELM PEPTIDE1{[C=Cc1c(C)c2cc3nc(c(CC(=O)O)c4[nH]c(cc5nc(cc1[nH]2)C(C)=C5CC)c(C)c4C(=O)[*:2])[C@@H](CCC(=O)O)[C@@H]3C].[O=C(CCCN[*:1])[*:2]].D.Y.E.M.H.L.W.W.G.T.E.L}$$$$V2.0) | 300 nM
C=Cc1c(C)c2cc3nc(c(CC(=O)O)c4[nH]c(cc5nc(cc1[nH]2)C(C)=C5CC)c(C)c4C(=O)NCCCC(=O)N[C@@H](CCCCN)C(=O)N[C@@H](CCCCN)C(=O)N[C@@H](CCCCN)C(=O)N[C@@H](CCCNC(=N)N)C(=O)N[C@@H](CC(C)C)C(=O)N[C@@H](CC(N)=O)C(=O)N[C@H](C(=O)NCC(=O)NCC(=O)N[C@H](C(=O)N[C@@H](Cc1ccc(O)cc1)C(=O)N[C@@H](Cc1ccccc1)C(=O)N[C@@H](CC(C)C)C(=O)N[C@H](C(=O)N[C@H](C(=O)N[C@@H](CCCNC(=N)N)C(=O)N[C@@H](CCC(N)=O)C(=O)O)[C@@H](C)O)[C@@H](C)O)[C@@H](C)O)C(C)C)[C@@H](CCC(=O)O)[C@@H]3C (HELM PEPTIDE1{[C=Cc1c(C)c2cc3nc(c(CC(=O)O)c4[nH]c(cc5nc(cc1[nH]2)C(C)=C5CC)c(C)c4C(=O)[*:2])[C@@H](CCC(=O)O)[C@@H]3C].[O=C(CCCN[*:1])[*:2]].K.K.K.R.L.N.V.G.G.T.Y.F.L.T.T.R.Q}$$$$V2.0) | 300 nM
C=Cc1c(C)c2cc3nc(c(CC(=O)O)c4[nH]c(cc5nc(cc1[nH]2)C(C)=C5CC)c(C)c4C(=O)NCCCC(=O)N[C@@H](CCCNC(=N)N)C(=O)N[C@@H](CC(C)C)C(=O)N[C@@H](CC(N)=O)C(=O)N[C@H](C(=O)NCC(=O)NCC(=O)N[C@H](C(=O)N[C@@H](Cc1ccc(O)cc1)C(=O)N[C@@H](Cc1ccccc1)C(=O)N[C@@H](CC(C)C)C(=O)N[C@H](C(=O)N[C@H](C(=O)N[C@@H](CCCNC(=N)N)C(=O)N[C@@H](CCC(N)=O)C(=O)O)[C@@H](C)O)[C@@H](C)O)[C@@H](C)O)C(C)C)[C@@H](CCC(=O)O)[C@@H]3C (HELM PEPTIDE1{[C=Cc1c(C)c2cc3nc(c(CC(=O)O)c4[nH]c(cc5nc(cc1[nH]2)C(C)=C5CC)c(C)c4C(=O)[*:2])[C@@H](CCC(=O)O)[C@@H]3C].[O=C(CCCN[*:1])[*:2]].R.L.N.V.G.G.T.Y.F.L.T.T.R.Q}$$$$V2.0) | 300 nM
